Drawing on PubChem BioAssay (NCI), this text covers TGI and GI50 for 10 compounds.

Some test systems named below: MDA-MB-231 breast; IGROV1 ovarian; RXF 393 renal; HCT-116 colon; MALME-3M melanoma; NCI-H460 lung; SF-268 CNS; KM12 colon; MDA-MB-435; UO-31 renal; CAKI-1 renal; OVCAR-4 ovarian; UACC-62 melanoma; MDA-N; OVCAR-5 ovarian.
What all share (experiment): NCI tumour cell line growth inhibition, 48 h

SMILES strings stand for the structures. “And” between values parts separate entries of the source, which are not always exact repeats. Identical values can stand only once.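 In this assay, cells in 96-well plates receive the compound at five concentrations for 48 hours. Endpoints are linearly interpolated between the surrounding concentrations. GI50 marks 50% less growth. TGI: concentration producing complete growth inhibition.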

On to `C=C(C(=O)O)[C@@H]1C[C@@H]2O[C@H]1[C@@H](O)[C@@H](C)CCCC(C)=CCC[C@@]2(C)O`, for which the TGI with MDA-MB-231 breast, in the assay on IGROV1 ovarian, with RXF 393 renal, with HCT-116 colon, in the assay with MALME-3M melanoma and in the assay on NCI-H460 lung was above 100 µM throughout. Moreover, the TGI in the assay with SF-268 CNS, in the assay with KM12 colon, in the assay with MDA-MB-435, in the assay with UO-31 renal, in the assay on CAKI-1 renal and with OVCAR-4 ovarian was above 100 µM in each case. In addition, the TGI in the assay on UACC-62 melanoma, with MDA-N and in the assay with OVCAR-5 ovarian was above 100 µM each time. For the same compound, the GI50 in the assay with CAKI-1 renal is 37.2 µM and > 100 µM.
Consider `Nc1nc(Cl)c(N)c(NCC2(CO)CC2)n1`, for which the TGI with MDA-MB-231 breast, in the assay with IGROV1 ovarian, in the assay on RXF 393 renal, in the assay on HCT-116 colon, in the assay with MALME-3M melanoma and in the assay with NCI-H460 lung was above 100 µM each time. Also, the TGI with SF-268 CNS, in the assay with KM12 colon, with MDA-MB-435, in the assay on UO-31 renal, in the assay with CAKI-1 renal and in the assay with OVCAR-4 ovarian was above 100 µM each time. Also, the TGI in the assay with UACC-62 melanoma, in the assay on MDA-N and in the assay with OVCAR-5 ovarian was above 100 µM throughout.
As to `NC(=O)N/N=C(/CC1C(=O)Oc2ccccc21)c1ccccc1O` (stereo unspecified), the TGI in the assay on MDA-MB-231 breast, in the assay with IGROV1 ovarian, with RXF 393 renal, with HCT-116 colon, with MALME-3M melanoma and with NCI-H460 lung was above 100 µM in each case. The TGI in the assay on SF-268 CNS, with KM12 colon, in the assay with MDA-MB-435, with UO-31 renal, in the assay on CAKI-1 renal and with OVCAR-4 ovarian was above 100 µM in each case. The results for the TGI with UACC-62 melanoma, in the assay on MDA-N and in the assay with OVCAR-5 ovarian were 63.6 µM, above 100 µM and above 100 µM, respectively.
With `Cc1ccccc1OC(C)C(=O)NN1C(=O)CSC1c1ccc(Cl)cc1` (stereo unspecified), the TGI in the assay on MDA-MB-231 breast is 86 µM; in the assay on IGROV1 ovarian, above 100 µM; in the assay on RXF 393 renal, above 86.9 µM; in the assay with HCT-116 colon, above 95.5 µM; in the assay on MALME-3M melanoma, above 100 µM; in the assay with NCI-H460 lung, above 56.8 µM. Further, the TGI in the assay on SF-268 CNS is above 67.4 µM; with KM12 colon, above 100 µM; with MDA-MB-435, above 100 µM; with UO-31 renal, above 100 µM; with CAKI-1 renal it was above 100 µM; in the assay with OVCAR-4 ovarian it was above 100 µM. In addition, the TGI in the assay on UACC-62 melanoma, in the assay on MDA-N and in the assay with OVCAR-5 ovarian was above 100 µM throughout.
Regarding `CC(C)(C)OC(=O)NC1CC2(C=C(Br)C(=O)C(Br)=C2)OC1=O` (stereo unspecified), the TGI came to 32.6 µM in the assay with MDA-MB-231 breast; 31.2 µM with IGROV1 ovarian; 11.8 µM in the assay on RXF 393 renal; 9.21 µM with HCT-116 colon; 18.9 µM in the assay with MALME-3M melanoma; 38.5 µM in the assay with NCI-H460 lung. In addition, the TGI with SF-268 CNS was determined as 32.2 µM; with KM12 colon, 45.1 µM; in the assay with MDA-MB-435, 22.1 µM; in the assay on UO-31 renal, 13.8 µM; with CAKI-1 renal, 11.6 µM; in the assay with OVCAR-4 ovarian, 24.1 µM. The values for the TGI in the assay with UACC-62 melanoma, in the assay on MDA-N and in the assay with OVCAR-5 ovarian were 32.4 µM, 15.3 µM and 35.1 µM, respectively.
On to `O=C1c2cc(Cl)ccc2NC(=NC2CCCC2)C2CSCN12` (stereo unspecified), for which the TGI in the assay with MDA-MB-231 breast, in the assay on IGROV1 ovarian, in the assay with RXF 393 renal, in the assay on HCT-116 colon, with MALME-3M melanoma and in the assay on NCI-H460 lung was above 100 µM throughout. Also, the TGI in the assay with SF-268 CNS, in the assay on KM12 colon, in the assay on MDA-MB-435, in the assay with UO-31 renal, with CAKI-1 renal and in the assay with OVCAR-4 ovarian was above 100 µM throughout. Moreover, the TGI in the assay with UACC-62 melanoma, in the assay with MDA-N and in the assay on OVCAR-5 ovarian was above 100 µM in each case.
On to `O=C(O)CCS/C(=C\C(SCCC(=O)O)c1ccc(Cl)cc1)c1ccc(Cl)cc1` (stereo unspecified), for which the TGI is above 100 µM in the assay with MDA-MB-231 breast; above 100 µM in the assay on IGROV1 ovarian; above 100 µM in the assay on RXF 393 renal; 57.5 µM in the assay on HCT-116 colon; above 100 µM with MALME-3M melanoma; above 100 µM with NCI-H460 lung. Besides, the TGI is above 100 µM in the assay with SF-268 CNS; 65.4 µM with KM12 colon; above 100 µM in the assay on MDA-MB-435; above 100 µM with UO-31 renal; above 100 µM in the assay with CAKI-1 renal; above 100 µM with OVCAR-4 ovarian. The TGI in the assay on UACC-62 melanoma is 38.4 µM; in the assay on MDA-N, above 100 µM; in the assay with OVCAR-5 ovarian, above 100 µM.
`CN(C)c1ccc(/C=C2\N=C(NNc3ccccc3)NC2=O)cc1`: the TGI in the assay with MDA-MB-231 breast was 40.1 µM; in the assay on IGROV1 ovarian, 80.6 µM; with RXF 393 renal it was 78.9 µM; with HCT-116 colon it was above 100 µM; in the assay with MALME-3M melanoma it was above 100 µM; in the assay on NCI-H460 lung, 52.7 µM. The TGI is above 100 µM with SF-268 CNS; 32.6 µM in the assay on KM12 colon; 59.1 µM in the assay on MDA-MB-435; above 100 µM in the assay with UO-31 renal; above 100 µM in the assay with CAKI-1 renal; above 100 µM with OVCAR-4 ovarian. The TGI in the assay on UACC-62 melanoma, in the assay on MDA-N and with OVCAR-5 ovarian was above 100 µM in each case.
`C/C(=N\N=C(\N)SB(F)F)c1ccc2ccccc2c1`: the TGI in the assay on MDA-MB-231 breast, in the assay on IGROV1 ovarian, in the assay with RXF 393 renal, in the assay on HCT-116 colon, in the assay on MALME-3M melanoma and in the assay with NCI-H460 lung was above 100 µM each time. Besides, the TGI in the assay on SF-268 CNS, with KM12 colon, with MDA-MB-435, in the assay with UO-31 renal, in the assay on CAKI-1 renal and in the assay with OVCAR-4 ovarian was above 100 µM throughout. The TGI in the assay with UACC-62 melanoma, in the assay on MDA-N and with OVCAR-5 ovarian was above 100 µM each time.
In the case of `[N-]=[N+]=NC1OC(=O)C(Cl)=C1N=P(c1ccccc1)(c1ccccc1)c1ccccc1` (stereo unspecified), the TGI in the assay with MDA-MB-231 breast, in the assay with IGROV1 ovarian, with RXF 393 renal, in the assay with HCT-116 colon, in the assay with MALME-3M melanoma and in the assay with NCI-H460 lung was above 10 µM each time. For the same compound, the TGI in the assay on SF-268 CNS, with KM12 colon, in the assay on MDA-MB-435, in the assay on UO-31 renal, with CAKI-1 renal and with OVCAR-4 ovarian was above 10 µM throughout. The TGI in the assay with UACC-62 melanoma, in the assay with MDA-N and with OVCAR-5 ovarian was above 10 µM each time.
